Results taken from patent US9315491B2 (DEVELOPMENT CENTER FOR BIOTECHNOLOGY, priority 2009, dated 2016).

Target: recombinant mTOR (Homo sapiens (Human), UniProt P42345)
Assay: mTOR kinase assay (33P incorporation into 4EBP1)
Type: biochemical
Settings: compound at 10 μM, 10 μM ATP
Protocol: The activity of the compound against mTOR was examined by measuring the incorporation of ^33P from [γ-^33P]-ATP into 4EBP1. His-tagged, recombinant human 4EBP1 was expressed in E. coli, purified by nickel-nitrilotriacetic acid (Ni-NTA) resins, and stored at −80° C. Phosphorylation of 4EBP1 by mTOR was assayed in the presence or absence of the compound and performed in a final volume of 25 μl reaction buffer containing 300 ng 4EBP1, 50 ng recombinant mTOR (Invitrogen), 50 mM HEPES (pH 7.5), 1 mM EGTA, 0.01% Polysorbate 20, 10 mM MnCl2, 2.5 mM DTT, 10 μM ATP, and 0.5 μCi [γ-33P]-ATP (PerkinElmir) for 30 min at 30° C. The reactions were terminated by adding 3% phosphoric acid. The ^33P labeled 4EBP1 was transferred onto UniFilter-96 GF/B plate (PerkinElmer) and quantified by Top Count Microplate Scintillation Counter (PerkinElmer). For primary screening of kinase activity inhibition, each test compound was evaluated at […] in duplicate. […] The IC50 values of the compounds were determined after carrying out assays at eight serially diluted concentrations of each compound in duplicate. The results were analyzed using linear regression software (GraphPad Prism 5; GraphPad Software Inc.).
IC50 value is defined as the concentration of the test compound which achieves a half-maximal inhibition of the kinase activity.

recombinant mTOR, sequence (P42345 1360-2549): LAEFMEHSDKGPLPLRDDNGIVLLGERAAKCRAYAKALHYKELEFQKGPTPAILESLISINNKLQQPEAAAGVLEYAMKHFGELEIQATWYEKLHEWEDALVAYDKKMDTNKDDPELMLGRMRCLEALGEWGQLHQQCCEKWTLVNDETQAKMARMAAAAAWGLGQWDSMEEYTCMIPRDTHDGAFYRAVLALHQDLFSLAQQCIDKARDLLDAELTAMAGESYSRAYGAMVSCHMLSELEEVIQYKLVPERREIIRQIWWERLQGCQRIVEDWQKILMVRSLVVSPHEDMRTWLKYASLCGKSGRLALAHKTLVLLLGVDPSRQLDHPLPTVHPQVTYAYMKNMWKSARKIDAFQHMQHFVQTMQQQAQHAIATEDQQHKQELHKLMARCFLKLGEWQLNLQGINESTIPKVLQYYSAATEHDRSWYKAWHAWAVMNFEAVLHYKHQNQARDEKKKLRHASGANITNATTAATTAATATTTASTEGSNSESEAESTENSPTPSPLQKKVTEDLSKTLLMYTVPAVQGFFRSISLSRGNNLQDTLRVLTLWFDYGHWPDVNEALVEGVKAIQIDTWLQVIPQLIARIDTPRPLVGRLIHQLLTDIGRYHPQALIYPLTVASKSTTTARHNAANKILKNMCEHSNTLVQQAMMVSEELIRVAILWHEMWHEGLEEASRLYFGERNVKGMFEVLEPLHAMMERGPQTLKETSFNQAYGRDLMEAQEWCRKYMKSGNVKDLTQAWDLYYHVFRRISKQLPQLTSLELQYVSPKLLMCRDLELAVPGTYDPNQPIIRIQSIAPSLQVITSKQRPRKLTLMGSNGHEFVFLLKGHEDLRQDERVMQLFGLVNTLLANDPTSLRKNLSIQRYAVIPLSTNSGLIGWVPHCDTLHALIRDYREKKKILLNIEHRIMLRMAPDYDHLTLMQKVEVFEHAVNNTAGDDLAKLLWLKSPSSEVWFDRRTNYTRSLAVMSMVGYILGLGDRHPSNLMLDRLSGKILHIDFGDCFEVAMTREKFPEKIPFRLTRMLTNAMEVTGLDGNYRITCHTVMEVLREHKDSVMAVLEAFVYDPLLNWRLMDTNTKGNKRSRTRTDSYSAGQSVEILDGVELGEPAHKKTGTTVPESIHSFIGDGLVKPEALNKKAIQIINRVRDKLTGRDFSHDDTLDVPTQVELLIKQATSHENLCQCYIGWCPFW

inhibition at 10 µM	% Inhibition @ 10 μM	Structure (SMILES)
93%		CCOC(=O)c1nc(-c2ccc(NC(=O)Nc3ccc(OCCN(C)C)cc3)cc2)nc(N2CCOCC2)c1OCC [MTR-0363, 2-(4-{3-[4-(2-Dimethylamino-ethoxy)-phenyl]-ureido}-phenyl)-5-ethoxy-6-morpholin-4-yl-pyrimidine-4-carboxylic acid ethyl ester]
87%		CSc1c(Cl)nc(-c2ccc(NC(=O)NCCN3CCOCC3)cc2)nc1N1CCOCC1 [MTR-0198, 1-[4-(4-Chloro-5-methylsulfanyl-6-morpholin-4-yl-pyrimidin-2-yl)-phenyl]-3-(2-morpholin-4-yl-ethyl)-urea]
90%		CSc1c(Cl)nc(-c2ccc(NC(=O)Nc3ccc(S(=O)(=O)N4CCOCC4)cc3)cc2)nc1N1CCOCC1 [MTR-0435, 1-[4-(4-Chloro-5-methylsulfanyl-6-morpholin-4-yl-pyrimidin-2-yl)-phenyl]-3-[4-(morpholine-4-sulfonyl)-phenyl]-urea]
84%		CSc1cnc(-c2ccc(NC(=O)Nc3ccc(F)c(F)c3)cc2)nc1N1CCOCC1 [MTR-0177, 1-(3,4-Difluoro-phenyl)-3-[4-(5-methylsulfanyl-4-morpholin-4-yl-pyrimidin-2-yl)-phenyl]-urea]
98%		CCOc1c(C(=O)N(CC)CC)nc(-c2ccc(NC(=O)Nc3ccccc3)cc2)nc1N1CCOCC1 [MTR-0120, 5-Ethoxy-6-morpholin-4-yl-2-[4-(3-phenyl-ureido)-phenyl]-pyrimidine-4-carboxylic acid diethylamide]
95%		COc1c(C(=O)O)nc(-c2ccc(NC(=O)Nc3ccccc3)cc2)nc1N1CCOCC1 [MTR-0183, 5-Methoxy-6-morpholin-4-yl-2-[4-(3-phenyl-ureido)-phenyl]-pyrimidine-4-carboxylic acid]
86%		COc1cnc(-c2ccc(Nc3nc4ccccc4[nH]3)cc2)nc1N1CCOCC1 [MTR-0310, (1H-Benzoimidazol-2-yl)-[4-(5-methoxy-4-morpholin-4-yl-pyrimidin-2-yl)-phenyl]-amine]
91%		CSc1cnc(-c2ccc(Nc3nc4ccccc4[nH]3)cc2)nc1N1CCOCC1 [MTR-0289, (1H-Benzoimidazol-2-yl)-[4-(5-methylsulfanyl-4-morpholin-4-yl-pyrimidin-2-yl)-phenyl]-amine]
92%		CCOC(=O)c1nc(-c2ccc(NC(=O)Nc3ccc(C(N)=O)cc3)c(F)c2)nc(N2CCOCC2)c1OCC [MTR-0344, 2-{4-[3-(4-Carbamoyl-phenyl)-ureido]-3-fluoro-phenyl}-5-ethoxy-6-morpholin-4-yl-pyrimidine-4-carboxylic acid ethyl ester]
90%		CSc1c(Cl)nc(-c2ccc(NC(=S)Nc3ccc(N4CCOCC4=O)cc3)cc2)nc1N1CCOCC1 [MTR-0304, 1-[4-(4-Chloro-5-methylsulfanyl-6-morpholin-4-yl-pyrimidin-2-yl)-phenyl]-3-[4-(3-oxo-morpholin-4-yl)-phenyl]-thiourea]
94%		CCOC(=O)c1nc(-c2ccc(NC(N)=O)cc2)nc(N2CCOCC2)c1OCC [MTR-0121, 5-Ethoxy-6-morpholin-4-yl-2-(4-ureido-phenyl)-pyrimidine-4-carboxylic acid ethyl ester]
85%		CCOc1cnc(-c2ccc(NC(=O)Nc3ccc(C(N)=O)cc3)cc2)nc1-c1ccncc1 [MTR-0400, 4-{3-[4-(5-Ethoxy-4-pyridin-4-yl-pyrimidin-2-yl)-phenyl]-ureido}-benzamide]
90%		COc1cnc(-c2ccc(NC(=O)Nc3ccncc3)cc2)nc1-c1ccncc1 [MTR-0480, 1-[4-(5-Methoxy-4-pyridin-4-yl-pyrimidin-2-yl)-phenyl]-3-pyridin-4-yl-urea]
82%		CCOC(=O)c1nc(-c2ccc(NC(=O)Nc3ccc(N4CCN(S(C)(=O)=O)CC4)cc3)cc2)nc(N2CCOCC2)c1OCC [MTR-0419, 5-Ethoxy-2-(4-{3-[4-(4-methanesulfonyl-piperazin-1-yl)-phenyl]-ureido}-phenyl)-6-morpholin-4-yl-pyrimidine-4-carboxylic acid ethyl ester]
85%		CSc1c(Cl)nc(-c2ccc(NC(=O)Nc3ccc(S(N)(=O)=O)cc3)c(F)c2)nc1N1CCOCC1 [MTR-0410, 4-{3-[4-(4-Chloro-5-methylsulfanyl-6-morpholin-4-yl-pyrimidin-2-yl)-2-fluoro-phenyl]-ureido}-benzenesulfonamide]
92%		CS(=O)(=O)c1cnc(-c2ccc(NC(=O)Nc3ccc(N4CCOCC4=O)cc3)cc2)nc1N1CCOCC1 [MTR-0381, 1-[4-(5-Methanesulfonyl-4-morpholin-4-yl-pyrimidin-2-yl)-phenyl]-3-[4-(3-oxo-morpholin-4-yl)-phenyl]-urea]
85%		CSc1c(Cl)nc(-c2ccc(NC(=O)Nc3ccc(N4CCOCC4)nc3)cc2)nc1N1CCOCC1 [MTR-0237, 1-[4-(4-Chloro-5-methylsulfanyl-6-morpholin-4-yl-pyrimidin-2-yl)-phenyl]-3-(6-morpholin-4-yl-pyridin-3-yl)-urea]

inhibition at 10 µM	% Inhibition @ 10 μM	Structure (SMILES)
	88%	COc1c(-c2ccc(N)cc2)nc(-c2ccc(N)cc2)nc1N1CCOCC1 [MTR-0483]
95%		CCOC(=O)c1nc(-c2ccc(NC(=O)Nc3ccc(C(N)=O)cc3)cc2F)nc(N2CCOCC2)c1OCC [MTR-0345, 2-{4-[3-(4-Carbamoyl-phenyl)-ureido]-2-fluoro-phenyl}-5-ethoxy-6-morpholin-4-yl-pyrimidine-4-carboxylic acid ethyl ester]
102%		CCOc1c(-c2cccnc2)nc(-c2ccc(NC(=O)Nc3ccncc3)cc2)nc1N1CCOCC1 [MTR-0490, 1-[4-(5-Ethoxy-4-morpholin-4-yl-6-pyridin-3-yl-pyrimidin-2-yl)-phenyl]-3-pyridin-4-yl-urea]
93%		CCOC(=O)c1nc(-c2ccc(NC(=O)Nc3ccc(F)cc3)cc2)nc(N2CCOCC2)c1OCC [MTR-0149, 5-Ethoxy-2-{4-[3-(4-fluoro-phenyl)-ureido]-phenyl}-6-morpholin-4-yl-pyrimidine-4-carboxylic acid ethyl ester]
93%		CSc1cnc(-c2ccc(NC(N)=O)cc2)nc1N1CCOCC1 [MTR-0286, [4-(5-Methylsulfanyl-4-morpholin-4-yl-pyrimidin-2-yl)-phenyl]-urea]
89%		COc1ccc(NC(=O)Nc2ccc(-c3ncc(OC)c(N4CCOCC4)n3)cc2)cc1OC [MTR-0239, 1-(3,4-Dimethoxy-phenyl)-3-[4-(5-methoxy-4-morpholin-4-yl-pyrimidin-2-yl)-phenyl]-urea]
94%		CCOc1c(C(=O)O)nc(-c2ccc(NC(=O)Nc3cccnc3)cc2)nc1N1CCOCC1 [MTR-0245, 5-Ethoxy-6-morpholin-4-yl-2-[4-(3-pyridin-3-yl-ureido)-phenyl]-pyrimidine-4-carboxylic acid]
91%		CSc1cnc(-c2ccc(NC(=O)Nc3ccc(N4CCN(C)CC4)cn3)cc2)nc1N1CCOCC1 [MTR-0318, 1-[5-(4-Methyl-piperazin-1-yl)-pyridin-2-yl]-3-[4-(5-methylsulfanyl-4-morpholin-4-yl-pyrimidin-2-yl)-phenyl]-urea]
96%		CCOc1c(C(N)=O)nc(-c2ccc(NC(=O)Nc3ccccc3)cc2)nc1N1CCOCC1 [MTR-0125, 5-Ethoxy-6-morpholin-4-yl-2-[4-(3-phenyl-ureido)-phenyl]-pyrimidine-4-carboxylic acid amide]
88%		COc1cnc(-c2ccc(NC(=O)Nc3ccc(S(C)(=O)=O)cc3)cc2)nc1N1CCOCC1 [MTR-0470, 1-(4-Methanesulfonyl-phenyl)-3-[4-(5-methoxy-4-morpholin-4-yl-pyrimidin-2-yl)-phenyl]-urea]
83%		CSc1cnc(-c2ccc(NC(=O)NC(C)C)cc2)nc1N1CCOCC1 [MTR-0341, 1-Isopropyl-3-[4-(5-methylsulfanyl-4-morpholin-4-yl-pyrimidin-2-yl)-phenyl]-urea]
81%		CCOC(=O)c1nc(-c2ccc3[nH]ccc3c2)nc(N2CCOCC2)c1OCC [MTR-0054, 5-Ethoxy-2-(1H-indol-5-yl)-6-morpholin-4-yl-pyrimidine-4-carboxylic acid ethyl ester]
81%		COc1cnc(-c2cccc(O)c2)nc1N1CCOCC1 [MTR-0116, 3-(5-Methoxy-4-morpholin-4-yl-pyrimidin-2-yl)-phenol]
84%		CCOC(=O)c1ccc(NC(=O)Nc2ccc(-c3nc(C(=O)OCC)c(OCC)c(N4CCOCC4)n3)cc2)cc1 [MTR-0362, 5-Ethoxy-2-{4-[3-(4-ethoxycarbonyl-phenyl)-ureido]-phenyl}-6-morpholin-4-yl-pyrimidine-4-carboxylic acid ethyl ester]
84%		CSc1cnc(-c2ccc(NC(=S)Nc3ccc(N4CCOCC4=O)cc3)cc2)nc1N1CCOCC1 [MTR-0319, 1-[4-(5-Methylsulfanyl-4-morpholin-4-yl-pyrimidin-2-yl)-phenyl]-3-[4-(3-oxo-morpholin-4-yl)-phenyl]-thiourea]
94%		COc1cnc(-c2ccc(NC(=O)Nc3ccc(OCCN(C)C)cc3)cc2)nc1N1CCOCC1 [MTR-0312, 1-[4-(2-Dimethylamino-ethoxy)-phenyl]-3-[4-(5-methoxy-4-morpholin-4-yl-pyrimidin-2-yl)-phenyl]-urea]
